According to publication PMC10175918 (Communications Biology, 2023):
Like-named read-outs stand apart in the source and are kept apart here.

Legend:
Assay in all cases: TGFα-shedding assay-based GPCR screening with chimeric Gα subunit proteins
Format in all cases: cell-based
348 GPCRs [1] = biological target: T1, 348 GPCRs (Homo sapiens, UniProt O95136); conditions: 10µM, Favipiravir 100μM
T1 construct: expressed in transfected cells; host or cells: HEK293A

348 GPCRs [2] = biological target: T2, 348 GPCRs (Homo sapiens, UniProt P04201); conditions: 10µM
T2 construct: expressed in transfected cells; host or cells: HEK293A
T2 sequence (P04201 1-325): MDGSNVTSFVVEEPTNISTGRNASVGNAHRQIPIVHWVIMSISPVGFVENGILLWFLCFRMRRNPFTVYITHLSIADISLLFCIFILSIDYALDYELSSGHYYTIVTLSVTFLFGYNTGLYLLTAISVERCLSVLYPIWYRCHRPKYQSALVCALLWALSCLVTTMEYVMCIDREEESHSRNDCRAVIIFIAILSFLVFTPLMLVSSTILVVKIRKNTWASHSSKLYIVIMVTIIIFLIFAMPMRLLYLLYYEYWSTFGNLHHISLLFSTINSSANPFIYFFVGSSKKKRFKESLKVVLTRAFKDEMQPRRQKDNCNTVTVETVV

348 GPCRs [3] = biological target: T3, 348 GPCRs (Homo sapiens, UniProt P22888); conditions: 10µM, Favipiravir 100μM
T3 construct: expressed in transfected cells; host or cells: HEK293A

348 GPCRs [4] = biological target: 348 GPCRs (Homo sapiens, UniProt P25021); conditions: 10µM, Favipiravir 100μM
348 GPCRs [5] = biological target: T4, 348 GPCRs (Homo sapiens, UniProt P35367); conditions: 10µM, Favipiravir 100μM
T4 construct: expressed in transfected cells; host or cells: HEK293A

348 GPCRs [6] = biological target: T5, 348 GPCRs (Homo sapiens, UniProt P50391); conditions: 10µM, Favipiravir 100μM
T5 construct: expressed in transfected cells; host or cells: HEK293A

348 GPCRs [7] = biological target: T6, 348 GPCRs (Homo sapiens, UniProt P51684); conditions: 10µM, Favipiravir 100μM
T6 construct: expressed in transfected cells; host or cells: HEK293A
T6 sequence (P51684 1-374): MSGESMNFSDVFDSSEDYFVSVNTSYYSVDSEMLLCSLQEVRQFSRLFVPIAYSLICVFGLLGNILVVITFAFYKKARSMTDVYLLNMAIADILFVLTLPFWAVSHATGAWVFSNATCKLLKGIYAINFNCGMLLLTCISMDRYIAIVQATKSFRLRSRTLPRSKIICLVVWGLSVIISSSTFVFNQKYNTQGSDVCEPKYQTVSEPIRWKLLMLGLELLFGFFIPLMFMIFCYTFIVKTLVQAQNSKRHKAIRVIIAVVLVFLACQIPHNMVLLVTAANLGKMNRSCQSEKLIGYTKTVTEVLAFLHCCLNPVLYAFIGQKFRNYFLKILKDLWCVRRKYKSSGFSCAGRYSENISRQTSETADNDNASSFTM

348 GPCRs [8] = biological target: T7, 348 GPCRs (Homo sapiens, UniProt P51685); conditions: 10µM, Favipiravir 100μM
T7 construct: expressed in transfected cells; host or cells: HEK293A

348 GPCRs [9] = biological target: T8, 348 GPCRs (Homo sapiens, UniProt Q86SQ6); conditions: 10µM
T8 construct: expressed in transfected cells; host or cells: HEK293A
T8 sequence (Q86SQ6 1-560): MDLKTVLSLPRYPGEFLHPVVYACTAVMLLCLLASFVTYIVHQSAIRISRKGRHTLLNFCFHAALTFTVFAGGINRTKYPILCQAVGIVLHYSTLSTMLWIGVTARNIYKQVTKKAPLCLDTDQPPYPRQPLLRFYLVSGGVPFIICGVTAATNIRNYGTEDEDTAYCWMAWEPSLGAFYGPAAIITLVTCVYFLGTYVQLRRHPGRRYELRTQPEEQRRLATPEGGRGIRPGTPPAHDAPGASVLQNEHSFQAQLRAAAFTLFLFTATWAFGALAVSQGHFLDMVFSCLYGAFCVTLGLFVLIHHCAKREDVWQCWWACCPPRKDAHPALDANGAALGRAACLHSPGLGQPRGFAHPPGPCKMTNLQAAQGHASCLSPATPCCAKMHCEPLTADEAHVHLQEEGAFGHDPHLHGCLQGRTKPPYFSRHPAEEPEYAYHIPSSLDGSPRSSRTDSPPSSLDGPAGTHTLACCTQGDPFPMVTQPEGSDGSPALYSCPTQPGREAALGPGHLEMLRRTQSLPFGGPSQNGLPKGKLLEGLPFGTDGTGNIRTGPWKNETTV

348 GPCRs [10] = biological target: 348 GPCRs (Homo sapiens, UniProt Q8IYL9); conditions: GPCR GPR65 (G protein-coupled receptor 65); 10µM
348 GPCRs [11] = biological target: T9, 348 GPCRs (Homo sapiens, UniProt Q9GZP7); conditions: 10µM
T9 construct: expressed in transfected cells; host or cells: HEK293A
T9 sequence (Q9GZP7 1-353): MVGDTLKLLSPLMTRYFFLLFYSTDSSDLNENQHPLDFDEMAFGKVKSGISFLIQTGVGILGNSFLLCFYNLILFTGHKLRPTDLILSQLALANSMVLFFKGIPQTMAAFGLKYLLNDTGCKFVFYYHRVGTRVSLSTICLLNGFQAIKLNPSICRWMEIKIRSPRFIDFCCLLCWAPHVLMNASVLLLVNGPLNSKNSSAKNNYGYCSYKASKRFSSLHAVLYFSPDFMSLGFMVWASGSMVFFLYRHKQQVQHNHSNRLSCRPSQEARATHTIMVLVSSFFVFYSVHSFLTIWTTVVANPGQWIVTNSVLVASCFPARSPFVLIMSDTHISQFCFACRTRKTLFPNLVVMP

348 GPCRs [12] = biological target: T10, 348 GPCRs (Homo sapiens, UniProt Q9GZQ4); conditions: 10µM, Favipiravir 100μM
T10 construct: expressed in transfected cells; host or cells: HEK293A

348 GPCRs [13] = biological target: T11, 348 GPCRs (Homo sapiens, UniProt Q9Y2T5); conditions: 10µM
T11 construct: expressed in transfected cells; host or cells: HEK293A
T11 sequence (Q9Y2T5 whole entry): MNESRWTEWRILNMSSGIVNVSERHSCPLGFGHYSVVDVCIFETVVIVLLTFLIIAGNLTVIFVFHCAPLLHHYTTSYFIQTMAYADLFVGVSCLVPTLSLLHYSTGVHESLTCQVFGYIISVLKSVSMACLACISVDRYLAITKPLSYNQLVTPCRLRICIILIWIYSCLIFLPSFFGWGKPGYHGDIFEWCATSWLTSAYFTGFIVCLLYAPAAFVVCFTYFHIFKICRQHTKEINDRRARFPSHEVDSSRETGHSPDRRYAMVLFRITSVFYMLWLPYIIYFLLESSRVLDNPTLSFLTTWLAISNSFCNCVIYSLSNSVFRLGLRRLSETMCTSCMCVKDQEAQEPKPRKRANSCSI

T10 sequence (Q9GZQ4 whole entry): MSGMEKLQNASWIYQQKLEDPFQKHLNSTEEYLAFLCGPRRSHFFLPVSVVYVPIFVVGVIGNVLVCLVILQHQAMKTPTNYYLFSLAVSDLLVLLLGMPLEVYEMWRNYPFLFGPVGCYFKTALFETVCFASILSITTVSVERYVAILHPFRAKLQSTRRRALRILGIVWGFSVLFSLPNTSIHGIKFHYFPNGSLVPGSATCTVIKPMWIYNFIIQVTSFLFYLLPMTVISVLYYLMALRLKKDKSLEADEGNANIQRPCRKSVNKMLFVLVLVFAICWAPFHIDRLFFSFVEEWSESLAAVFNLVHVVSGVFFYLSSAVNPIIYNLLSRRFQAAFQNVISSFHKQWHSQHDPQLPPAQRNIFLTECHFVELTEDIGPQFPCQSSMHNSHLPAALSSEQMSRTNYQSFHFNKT
T3 sequence (P22888 27-699): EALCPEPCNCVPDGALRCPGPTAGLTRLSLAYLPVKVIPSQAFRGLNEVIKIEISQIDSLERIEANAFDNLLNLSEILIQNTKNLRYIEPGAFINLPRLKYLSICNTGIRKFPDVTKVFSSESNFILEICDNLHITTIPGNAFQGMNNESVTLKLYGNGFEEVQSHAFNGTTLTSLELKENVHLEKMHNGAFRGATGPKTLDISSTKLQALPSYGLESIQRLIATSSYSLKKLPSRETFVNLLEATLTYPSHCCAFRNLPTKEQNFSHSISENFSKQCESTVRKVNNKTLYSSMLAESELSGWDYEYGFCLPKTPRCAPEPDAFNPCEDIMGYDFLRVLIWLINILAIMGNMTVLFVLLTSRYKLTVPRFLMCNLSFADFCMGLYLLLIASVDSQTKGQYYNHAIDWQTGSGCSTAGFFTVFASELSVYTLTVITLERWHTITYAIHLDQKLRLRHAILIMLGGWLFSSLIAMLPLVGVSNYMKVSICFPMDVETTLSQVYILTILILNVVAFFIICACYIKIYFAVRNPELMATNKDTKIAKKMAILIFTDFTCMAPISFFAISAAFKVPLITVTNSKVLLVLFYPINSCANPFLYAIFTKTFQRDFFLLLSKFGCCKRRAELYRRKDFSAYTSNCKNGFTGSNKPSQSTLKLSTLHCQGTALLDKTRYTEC
T4 sequence (P35367 whole entry): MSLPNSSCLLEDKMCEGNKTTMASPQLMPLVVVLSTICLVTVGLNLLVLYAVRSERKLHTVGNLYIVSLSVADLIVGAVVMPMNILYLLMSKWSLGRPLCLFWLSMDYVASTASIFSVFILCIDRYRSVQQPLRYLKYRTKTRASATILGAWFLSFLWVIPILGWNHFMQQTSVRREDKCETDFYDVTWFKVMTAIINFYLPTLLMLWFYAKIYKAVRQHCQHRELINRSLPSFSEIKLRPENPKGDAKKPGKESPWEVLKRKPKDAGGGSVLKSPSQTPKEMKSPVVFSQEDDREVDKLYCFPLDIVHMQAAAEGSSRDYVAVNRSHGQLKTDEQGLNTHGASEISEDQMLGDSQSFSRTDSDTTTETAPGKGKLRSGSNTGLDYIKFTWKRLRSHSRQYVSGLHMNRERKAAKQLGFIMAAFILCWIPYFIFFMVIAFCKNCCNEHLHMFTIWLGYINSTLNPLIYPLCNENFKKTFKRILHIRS
Sequence of 348 GPCRs (Homo sapiens, UniProt Q8IYL9) (Q8IYL9 whole entry): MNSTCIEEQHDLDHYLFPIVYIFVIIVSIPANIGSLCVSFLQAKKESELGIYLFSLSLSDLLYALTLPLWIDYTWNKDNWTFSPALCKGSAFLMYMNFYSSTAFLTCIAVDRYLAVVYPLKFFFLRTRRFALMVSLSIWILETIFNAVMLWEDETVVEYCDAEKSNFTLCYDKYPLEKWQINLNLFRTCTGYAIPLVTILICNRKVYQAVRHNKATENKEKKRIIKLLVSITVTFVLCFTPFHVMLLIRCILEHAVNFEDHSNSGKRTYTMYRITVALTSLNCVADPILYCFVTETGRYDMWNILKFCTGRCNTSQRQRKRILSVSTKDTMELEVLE
T5 sequence (P50391 whole entry): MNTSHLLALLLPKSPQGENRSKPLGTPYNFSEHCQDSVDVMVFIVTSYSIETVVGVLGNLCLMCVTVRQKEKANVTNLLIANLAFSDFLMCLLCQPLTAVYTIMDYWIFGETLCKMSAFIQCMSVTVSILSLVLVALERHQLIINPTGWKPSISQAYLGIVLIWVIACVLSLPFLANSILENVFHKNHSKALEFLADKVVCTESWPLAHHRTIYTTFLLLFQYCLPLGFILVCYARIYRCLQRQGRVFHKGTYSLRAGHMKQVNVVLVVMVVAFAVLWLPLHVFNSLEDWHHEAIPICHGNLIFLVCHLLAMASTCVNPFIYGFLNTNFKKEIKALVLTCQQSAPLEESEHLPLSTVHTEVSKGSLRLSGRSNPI
Sequence of 348 GPCRs (Homo sapiens, UniProt P25021) (P25021 whole entry): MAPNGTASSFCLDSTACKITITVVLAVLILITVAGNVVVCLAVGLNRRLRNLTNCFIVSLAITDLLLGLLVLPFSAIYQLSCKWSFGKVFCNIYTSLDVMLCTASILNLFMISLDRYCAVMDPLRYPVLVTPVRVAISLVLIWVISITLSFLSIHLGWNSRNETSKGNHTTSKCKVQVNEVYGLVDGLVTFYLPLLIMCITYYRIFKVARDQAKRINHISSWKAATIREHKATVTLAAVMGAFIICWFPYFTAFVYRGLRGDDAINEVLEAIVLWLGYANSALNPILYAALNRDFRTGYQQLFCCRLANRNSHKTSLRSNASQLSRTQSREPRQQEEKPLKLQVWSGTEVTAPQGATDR
T1 sequence (O95136 whole entry): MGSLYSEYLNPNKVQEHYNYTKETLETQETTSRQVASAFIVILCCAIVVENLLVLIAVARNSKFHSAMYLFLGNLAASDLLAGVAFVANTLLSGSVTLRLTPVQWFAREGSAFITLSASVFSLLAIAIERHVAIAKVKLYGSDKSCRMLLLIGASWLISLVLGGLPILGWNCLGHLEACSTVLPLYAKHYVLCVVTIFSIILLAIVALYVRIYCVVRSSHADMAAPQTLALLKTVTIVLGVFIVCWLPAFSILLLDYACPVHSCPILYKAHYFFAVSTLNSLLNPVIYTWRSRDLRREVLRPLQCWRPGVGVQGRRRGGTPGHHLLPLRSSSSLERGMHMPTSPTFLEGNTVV
T7 sequence (P51685 whole entry): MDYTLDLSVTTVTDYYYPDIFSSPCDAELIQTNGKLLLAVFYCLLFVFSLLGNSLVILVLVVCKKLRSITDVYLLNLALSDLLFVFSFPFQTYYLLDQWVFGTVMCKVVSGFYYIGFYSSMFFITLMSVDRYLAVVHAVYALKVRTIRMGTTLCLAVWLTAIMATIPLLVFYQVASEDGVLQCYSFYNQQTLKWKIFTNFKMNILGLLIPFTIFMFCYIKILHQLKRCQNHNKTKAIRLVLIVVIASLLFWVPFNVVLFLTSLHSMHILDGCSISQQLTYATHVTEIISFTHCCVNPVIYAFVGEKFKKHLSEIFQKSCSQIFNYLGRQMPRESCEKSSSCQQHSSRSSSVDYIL

Structure (SMILES): CC(C)OC(=O)[C@H](C)N[P@](=O)(OC[C@H]1O[C@@H](n2ccc(=O)[nH]c2=O)[C@](C)(F)[C@@H]1O)Oc1ccccc1 [sofosbuvir]
- activation at 10 µM (348 GPCRs [1]; read-out: % GPCR activation compared to TPA, S1PR2 (sphingosine-1-phosphate receptor 2)): 0.199%
- activation at 10 µM (348 GPCRs [2]; read-out: % GPCR activation compared to TPA, GPCR MAS1 (MAS1 oncogene)): 2.48%
- activation at 100 µM (348 GPCRs [3]; read-out: % GPCR activation compared to TPA, LHCGR (luteinizing hormone/choriogonadotropin receptor)): 1.92%
- activation at 10 µM (348 GPCRs [4]; read-out: % GPCR activation compared to TPA, H2 (histamine receptor H2)): -0.476%
- activation at 10 µM (348 GPCRs [5]; read-out: % GPCR activation compared to TPA, H1 (histamine receptor H1)): -0.312%
- activation at 100 µM (348 GPCRs [6]; read-out: % GPCR activation compared to TPA, NPY4R (neuropeptide Y receptor Y4)): -0.849%
- activation at 10 µM (348 GPCRs [7]; read-out: % GPCR activation compared to TPA, CCR6 (C-C motif chemokine receptor 6)): -3.43%
- activation at 10 µM (348 GPCRs [8]; read-out: % GPCR activation compared to TPA, CCR8 (C-C motif chemokine receptor 8)): -2.89%
- activation at 10 µM (348 GPCRs [9]; read-out: % GPCR activation compared to TPA, GPCR GPR123 (Adhesion G Protein-Coupled Receptor A1 (ADGRA1))): 0.445%
- % GPCR activation compared to TPA (348 GPCRs [10]): -10.455%
- activation at 10 µM (348 GPCRs [11]; read-out: % GPCR activation compared to TPA, GPCR VN1R1 (vomeronasal 1 receptor)): -0.898%
- activation at 10 µM (348 GPCRs [12]; read-out: % GPCR activation compared to TPA, NMUR2 (neuromedin U receptor 2)): -4.3%
- activation at 10 µM (348 GPCRs [13]; read-out: % GPCR activation compared to TPA, GPCR GPR52 (G protein-coupled receptor 52)): -2.66%

Structure (SMILES): CC(C)C(=O)OC[C@H]1O[C@@H](n2ccc(NO)nc2=O)[C@H](O)[C@@H]1O [molnupiravir]
- activation at 10 µM (348 GPCRs [1]; S1PR2 (sphingosine-1-phosphate receptor 2), read-out: % GPCR activation compared to TPA): -2.13%
- activation at 10 µM (348 GPCRs [2]; GPCR MAS1 (MAS1 oncogene), read-out: % GPCR activation compared to TPA): -15.3%
- activation at 100 µM (348 GPCRs [3]; LHCGR (luteinizing hormone/choriogonadotropin receptor), read-out: % GPCR activation compared to TPA): -0.797%
- activation at 10 µM (348 GPCRs [4]; H2 (histamine receptor H2), read-out: % GPCR activation compared to TPA): -0.335%
- activation at 10 µM (348 GPCRs [5]; H1 (histamine receptor H1), read-out: % GPCR activation compared to TPA): -2.24%
- activation at 100 µM (348 GPCRs [6]; NPY4R (neuropeptide Y receptor Y4), read-out: % GPCR activation compared to TPA): -1.31%
- activation at 10 µM (348 GPCRs [7]; CCR6 (C-C motif chemokine receptor 6), read-out: % GPCR activation compared to TPA): -2.53%
- activation at 10 µM (348 GPCRs [8]; CCR8 (C-C motif chemokine receptor 8), read-out: % GPCR activation compared to TPA): -2.68%
- activation at 10 µM (348 GPCRs [9]; GPCR GPR123 (Adhesion G Protein-Coupled Receptor A1 (ADGRA1)), read-out: % GPCR activation compared to TPA): -2.47%
- % GPCR activation compared to TPA (348 GPCRs [10]): -8.376%
- activation at 10 µM (348 GPCRs [11]; GPCR VN1R1 (vomeronasal 1 receptor), read-out: % GPCR activation compared to TPA): -1.19%
- activation at 10 µM (348 GPCRs [12]; NMUR2 (neuromedin U receptor 2), read-out: % GPCR activation compared to TPA): -2.66%
- activation at 10 µM (348 GPCRs [13]; GPCR GPR52 (G protein-coupled receptor 52), read-out: % GPCR activation compared to TPA): -1.34%
